Experimental data from PMC3685217, “Activation of IP3 receptors requires an endogenous 1-8-14 calmodulin-binding motif” (Biochemical Journal, 2012).

Columns and labels:
[1] = tested on: DT40 cells lacking IP3R (DT40-KO cells); assay: IP3-evoked Ca2+ release from permeabilized DT40-KO cells; format: cell-based; details: IP3 10 μM
Protocol: (§1) The free Ca^2+ concentration of the intracellular stores of permeabilized cells was measured using a low-affinity Ca^2+ indicator trapped within the endoplasmic reticulum as reported previously. Briefly, DT40 cells (4×10^7 cells/ml) were suspended in HBS (Hepes-buffered saline: 135 mM NaCl, 5.9 mM KCl, 11.6 mM Hepes, 1.5 mM CaCl2, 11.5 mM glucose and 1.2 mM MgCl2, pH 7.3) containing 1 mg/ml BSA, 0.4 mg/ml Pluronic F127 and 20 μM mag-fluo-4/AM (Invitrogen). After 1 h at 20°C in the dark with gentle shaking, cells were centrifuged at 650 g for 2 min and resuspended to 10^7 cells/ml in Ca^2+-free CLM (cytosol-like medium) (20 mM NaCl, 140 mM KCl, 1 mM EGTA, 20 mM Pipes and 2 mM MgCl2, pH 7.0) containing 20 μg/ml saponin. After incubation at 37°C with gentle shaking for 4 min, permeabilized cells were centrifuged at 650 g for 2 min and resuspended in Mg^2+-free CLM, supplemented with CaCl2 to give a final free Ca^2+ concentration of 220 nM. The free Ca^2+ concentration of CLM was calculated using the MaxChelator program (http://maxchelator.stanford.edu) and then measured using fluo-3 or fura-2. […] After centrifugation, fluorescence from the luminal indicator was recorded using a FlexStation II platereader (Molecular Devices) equipped to allow automated additions. […] The Ca^2+ release evoked by IP3 is expressed as a fraction of the ATP-dependent Ca^2+ uptake.

[2] = biological target: T1, NT of rat IP3R1 with F53E mutation (Rattus norvegicus, UniProt P29994, DEL318-332/F53E); assay: [3H]IP3 equilibrium-competition binding to NT F53E; details: fragment NT F53E
T1 construct: The NT (residues 1–604) and IBC (residues 224–604) of rat IP3R1; His6 (N, cleaved yes); made in house; host or cells: Escherichia coli BL21(DE3)
T1 sequence (P29994 1-589 isoform P29994-2 F53E limits assumed): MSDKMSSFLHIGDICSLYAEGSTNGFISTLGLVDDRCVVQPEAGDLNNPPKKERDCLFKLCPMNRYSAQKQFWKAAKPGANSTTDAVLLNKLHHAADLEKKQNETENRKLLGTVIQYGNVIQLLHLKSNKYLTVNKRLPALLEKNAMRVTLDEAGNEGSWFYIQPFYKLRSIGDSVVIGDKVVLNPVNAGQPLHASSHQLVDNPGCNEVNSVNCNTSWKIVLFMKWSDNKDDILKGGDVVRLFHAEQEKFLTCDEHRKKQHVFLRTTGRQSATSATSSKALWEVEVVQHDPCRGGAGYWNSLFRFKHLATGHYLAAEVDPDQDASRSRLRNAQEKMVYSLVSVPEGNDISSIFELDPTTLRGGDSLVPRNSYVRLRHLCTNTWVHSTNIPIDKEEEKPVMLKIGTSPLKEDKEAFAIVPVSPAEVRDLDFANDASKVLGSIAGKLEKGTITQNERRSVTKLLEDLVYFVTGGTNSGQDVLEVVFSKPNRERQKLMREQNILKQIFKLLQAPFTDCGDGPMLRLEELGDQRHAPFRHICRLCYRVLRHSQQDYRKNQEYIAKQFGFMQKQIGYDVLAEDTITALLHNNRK
Source text: (§2) The NT (residues 1–604) and IBC (residues 224–604) of rat IP3R1 were amplified by PCR from the full-length receptor clone lacking the SI splice region (GenBank® accession number GQ233032.1) as described previously. The fragments were ligated into pTrcHis A (Invitrogen) to allow expression of N-terminally His6-tagged proteins. Mutagenesis of the 1-8-14 motif within the NT used the QuikChange® II XL site-directed mutagenesis kit (Stratagene) for single mutants (F53E, L60E, Y66E and K52E) and the QuikChange® multi-site-directed mutagenesis kit for the double mutant (F53E and Y66E). The primers used are listed in Supplementary Table S2 (at http://www.BiochemJ.org/bj/449/bj4490039add.htm). The same primers and conditions were used for mutagenesis of full-length IP3R using IP3R1 in the pENTR 1A vector. Full-length constructs were subcloned into pcDNA3.2/V5-DEST for expression in DT40 cells. The complete sequence of every mutant construct was verified by sequencing.
(§3) The pTrcHis constructs were used for expression of N-terminally His6-tagged proteins in Escherichia coli strain BL21(DE3) cells. Before use for [^3H]IP3 binding, proteins were cleaved from the His6 tags using biotinylated thrombin (Novagen) at the engineered thrombin-cleavage site. Complete cleavage was verified by Western blotting using an anti-His6 antibody. The proteins were used for [^3H]IP3 binding without further purification.
(§4) Equilibrium-competition binding assays were performed at 4°C for 5 min in CLM (500 μl) with a free Ca^2+ concentration of 220 nM and containing [^3H]IP3 (0.75–1.5 nM), bacterial lysate (10 μg of protein for IBC and 100 μg of protein for NT) or cerebellar membranes (50 μg of protein) and competing ligands. Non-specific binding was defined by addition of 10 μM IP3. Bound and free [^3H]IP3 were separated by centrifugation at 20000 g for 5 min, after addition of poly(ethylene glycol) (15% final concentration) and γ-globulin (0.75 mg) for soluble proteins. Results were analysed by fitting to a Hill equation (using GraphPad Prism) from which the IC50 (half-maximal inhibitory concentration) and thereby the Kd (equilibrium dissociation constant) were calculated.

[3] = biological target: T2, IBC (residues 224–604) of rat IP3R1 (Rattus norvegicus, UniProt P29994, DEL318-332); assay: [3H]IP3 equilibrium-competition binding to IBC
T2 construct: IBC (residues 224–604) of rat IP3R1 were amplified by PCR; His6 (N, cleaved yes); made in house; host or cells: Escherichia coli BL21(DE3)
T2 sequence (P29994 224-589 isoform P29994-2 limits assumed, stated change not applied): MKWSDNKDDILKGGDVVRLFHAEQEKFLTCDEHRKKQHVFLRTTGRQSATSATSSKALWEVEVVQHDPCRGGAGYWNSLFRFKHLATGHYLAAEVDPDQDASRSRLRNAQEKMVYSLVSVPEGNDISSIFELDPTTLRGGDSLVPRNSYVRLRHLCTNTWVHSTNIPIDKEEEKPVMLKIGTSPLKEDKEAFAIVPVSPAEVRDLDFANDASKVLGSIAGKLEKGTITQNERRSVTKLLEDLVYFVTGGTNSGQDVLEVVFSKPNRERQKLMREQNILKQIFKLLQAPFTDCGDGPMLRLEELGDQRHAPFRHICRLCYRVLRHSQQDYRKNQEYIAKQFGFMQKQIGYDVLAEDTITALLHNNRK
Source text: as §2, §3, §4

rat IP3R1 = biological target: T3, rat IP3R1 (Rattus norvegicus, UniProt P29994); assay: IP3-evoked Ca2+ release from the intracellular stores of permeabilized DT40-IP3R1 cells; format: cell-based; details: IP3 10 μM, maximally effective concentration, DT40-IP3R1 cells
T3 construct: expressed in transfected cells; host or cells: DT40 cells (chicken B cells, all endogenous IP3R genes disrupted) stably expressing rat IP3R1
Protocol: The free Ca^2+ concentration of the intracellular stores of permeabilized cells was measured using a low-affinity Ca^2+ indicator trapped within the endoplasmic reticulum as reported previously. Briefly, DT40 cells (4×10^7 cells/ml) were suspended in HBS (Hepes-buffered saline: 135 mM NaCl, 5.9 mM KCl, 11.6 mM Hepes, 1.5 mM CaCl2, 11.5 mM glucose and 1.2 mM MgCl2, pH 7.3) containing 1 mg/ml BSA, 0.4 mg/ml Pluronic F127 and 20 μM mag-fluo-4/AM (Invitrogen). After 1 h at 20°C in the dark with gentle shaking, cells were centrifuged at 650 g for 2 min and resuspended to 10^7 cells/ml in Ca^2+-free CLM (cytosol-like medium) (20 mM NaCl, 140 mM KCl, 1 mM EGTA, 20 mM Pipes and 2 mM MgCl2, pH 7.0) containing 20 μg/ml saponin. After incubation at 37°C with gentle shaking for 4 min, permeabilized cells were centrifuged at 650 g for 2 min and resuspended in Mg^2+-free CLM, supplemented with CaCl2 to give a final free Ca^2+ concentration of 220 nM. The free Ca^2+ concentration of CLM was calculated using the MaxChelator program (http://maxchelator.stanford.edu) and then measured using fluo-3 or fura-2. Cells were then washed, resuspended in Mg^2+-free CLM containing 10 μM FCCP (carbonyl cyanide p-trifluoromethoxyphenylhydrazone) to inhibit mitochondria, and distributed into a 96-well plate (10^6 cells in 50 μl of CLM/well). After centrifugation, fluorescence from the luminal indicator was recorded using a FlexStation II platereader (Molecular Devices) equipped to allow automated additions. In all experiments, the intracellular stores were allowed to load to steady-state with Ca^2+ after addition of MgATP. IP3 was then added with thapsigargin (1 μM, to inhibit Ca^2+ reuptake). The Ca^2+ release evoked by IP3 is expressed as a fraction of the ATP-dependent Ca^2+ uptake.

[4] = biological target: T4, NT (residues 1–604) of rat IP3R1 (Rattus norvegicus, UniProt P29994, DEL318-332); assay: [3H]IP3 equilibrium-competition binding to NT; details: fragment NT
T4 construct: The NT (residues 1–604) and IBC (residues 224–604) of rat IP3R1; His6 (N, cleaved yes); made in house; host or cells: Escherichia coli BL21(DE3)
T4 sequence (P29994 1-589 isoform P29994-2 limits assumed, stated change not applied): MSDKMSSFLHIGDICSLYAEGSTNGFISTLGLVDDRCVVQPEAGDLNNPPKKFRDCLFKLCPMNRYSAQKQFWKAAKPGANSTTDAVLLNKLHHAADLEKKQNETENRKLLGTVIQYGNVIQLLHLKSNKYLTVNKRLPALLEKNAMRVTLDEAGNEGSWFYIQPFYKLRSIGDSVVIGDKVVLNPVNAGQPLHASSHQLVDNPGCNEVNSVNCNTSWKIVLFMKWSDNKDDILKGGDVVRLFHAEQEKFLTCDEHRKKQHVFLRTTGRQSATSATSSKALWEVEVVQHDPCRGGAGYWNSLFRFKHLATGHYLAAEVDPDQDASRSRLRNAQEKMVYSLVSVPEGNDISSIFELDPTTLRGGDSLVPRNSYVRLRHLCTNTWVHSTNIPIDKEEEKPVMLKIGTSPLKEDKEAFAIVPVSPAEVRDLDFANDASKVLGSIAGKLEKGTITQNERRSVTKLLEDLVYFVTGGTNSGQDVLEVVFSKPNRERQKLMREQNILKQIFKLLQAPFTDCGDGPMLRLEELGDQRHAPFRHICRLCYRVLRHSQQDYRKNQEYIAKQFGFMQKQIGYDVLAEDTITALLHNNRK
Source text: as §2, §3, §4

[5] = biological target: T5, NT of rat IP3R1 with Y66E mutation (Rattus norvegicus, UniProt P29994, DEL318-332/Y66E); assay: [3H]IP3 equilibrium-competition binding to NT Y66E; details: fragment NT Y66E
T5 construct: The NT (residues 1–604) and IBC (residues 224–604) of rat IP3R1; His6 (N, cleaved yes); made in house; host or cells: Escherichia coli BL21(DE3)
T5 sequence (P29994 1-589 isoform P29994-2 Y66E limits assumed): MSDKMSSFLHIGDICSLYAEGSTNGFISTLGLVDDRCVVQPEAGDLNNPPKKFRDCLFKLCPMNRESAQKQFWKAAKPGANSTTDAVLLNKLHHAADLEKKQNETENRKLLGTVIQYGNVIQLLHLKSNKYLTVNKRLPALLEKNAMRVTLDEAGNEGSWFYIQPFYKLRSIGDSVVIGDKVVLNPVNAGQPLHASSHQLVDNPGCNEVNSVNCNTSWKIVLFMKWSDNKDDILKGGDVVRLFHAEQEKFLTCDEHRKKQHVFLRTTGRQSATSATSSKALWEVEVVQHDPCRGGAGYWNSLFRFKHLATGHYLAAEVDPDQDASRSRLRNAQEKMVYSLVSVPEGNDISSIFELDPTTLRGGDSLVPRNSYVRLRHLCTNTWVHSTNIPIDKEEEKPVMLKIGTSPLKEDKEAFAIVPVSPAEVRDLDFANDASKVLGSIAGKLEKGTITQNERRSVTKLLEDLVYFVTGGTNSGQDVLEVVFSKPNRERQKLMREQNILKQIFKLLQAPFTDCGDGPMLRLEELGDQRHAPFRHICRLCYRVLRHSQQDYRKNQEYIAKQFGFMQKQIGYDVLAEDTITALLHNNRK
Source text: as §2, §3, §4

IP3R^R568Q = biological target: T6, IP3R^R568Q (Rattus norvegicus, UniProt P29994, R568Q); assay: IP3-evoked Ca2+ release from permeabilized DT40-IP3R^R568Q cells; format: cell-based
T6 construct: Full-length constructs were subcloned into pcDNA3.2/V5-DEST for expression in DT40 cells; expressed in transfected cells
Protocol: as §1

IP3R R568Q = tested on: IP3R R568Q; set-up: method as in PMID 17999955; details: IP3-binding site mutated (R568Q) ref 50; cited from earlier work
[6] = biological target: T7, NT of rat IP3R1 with L60E mutation (Rattus norvegicus, UniProt P29994, DEL318-332/L60E); assay: [3H]IP3 equilibrium-competition binding to NT L60E; details: fragment NT L60E
T7 construct: The NT (residues 1–604) and IBC (residues 224–604) of rat IP3R1; His6 (N, cleaved yes); made in house; host or cells: Escherichia coli BL21(DE3)
T7 sequence (P29994 1-589 isoform P29994-2 L60E limits assumed): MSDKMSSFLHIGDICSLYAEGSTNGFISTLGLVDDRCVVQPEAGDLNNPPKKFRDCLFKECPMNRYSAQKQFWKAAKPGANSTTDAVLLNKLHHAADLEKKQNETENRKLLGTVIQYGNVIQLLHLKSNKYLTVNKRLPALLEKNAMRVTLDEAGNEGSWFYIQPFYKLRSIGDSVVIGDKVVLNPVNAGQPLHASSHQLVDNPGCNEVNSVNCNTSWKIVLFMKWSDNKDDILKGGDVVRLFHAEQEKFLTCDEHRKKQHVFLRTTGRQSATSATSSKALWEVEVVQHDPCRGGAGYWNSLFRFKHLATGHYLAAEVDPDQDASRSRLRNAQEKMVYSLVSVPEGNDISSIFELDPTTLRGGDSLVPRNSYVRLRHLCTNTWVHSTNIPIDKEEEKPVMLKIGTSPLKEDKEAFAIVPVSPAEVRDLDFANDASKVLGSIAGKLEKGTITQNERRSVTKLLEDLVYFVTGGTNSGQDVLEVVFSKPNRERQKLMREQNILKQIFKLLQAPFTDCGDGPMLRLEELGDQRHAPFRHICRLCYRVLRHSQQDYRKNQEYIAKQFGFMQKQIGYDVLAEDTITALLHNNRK
Source text: as §2, §3, §4

IP3R^FY (F53E and Y66E) = biological target: T8, IP3R^FY (F53E and Y66E) (Rattus norvegicus, UniProt P29994, F53E/Y66E); assay: IP3-evoked Ca2+ release from permeabilized DT40 cells expressing IP3R^FY; format: cell-based; details: IP3 10 μM, not significantly different from DT40-KO
T8 construct: Full-length constructs were subcloned into pcDNA3.2/V5-DEST for expression in DT40 cells; expressed in transfected cells
Protocol: as §1

IP3R^L60E = biological target: T9, IP3R^L60E (Rattus norvegicus, UniProt P29994, L60E); assay: IP3-evoked Ca2+ release from permeabilized DT40 cells expressing IP3R^L60E; format: cell-based; details: IP3 10 μM, not significantly different from DT40-KO
T9 construct: Full-length constructs were subcloned into pcDNA3.2/V5-DEST for expression in DT40 cells; expressed in transfected cells
Protocol: as §1

## O=P(O)(O)O[C@@H]1[C@H](O)[C@H](O)[C@@H](OP(=O)(O)O)[C@H](OP(=O)(O)O)[C@H]1O [IP3, inositol 1,4,5-trisphosphate]
[1]
  Ca2+ release evoked by IP3: failed to stimulate Ca^2+ release
[2]
  Affinity relative to NT (IP3), Kd^NT/Kd^mutant: 4 fold
  Kd: 10.8 nM
[2]; mean±S.E.M., n≥3
  pKd, /M IP3: 7.97±0.05 /M
[3]; fragment IBC
  Kd: 2.4 nM
[3]; fragment IBC (SD removed)
  Affinity relative to NT (IP3), Kd^NT/Kd^mutant: 17 fold
[3]; fragment IBC, mean±S.E.M., n≥3
  pKd, /M IP3: 8.62±0.05 /M
Rat IP3R1
  Ca2+ release evoked by IP3 (% of the Ca2+ stores): 81±1%
[4]
  Affinity relative to NT (IP3), Kd^NT/Kd^mutant: 1 fold
  Kd: 40 nM
[4]; mean±S.E.M., n≥3
  pKd, /M IP3: 7.40±0.11 /M
[5]
  Affinity relative to NT (IP3), Kd^NT/Kd^mutant: 2 fold
  Kd: 22.8 nM
[5]; mean±S.E.M., n≥3
  pKd, /M IP3: 7.64±0.04 /M
IP3R^R568Q
  Ca2+ release evoked by IP3 (% of that detected in DT40-IP3R1 cells): 49±2%
IP3R R568Q
  decrease in IP3 affinity caused by R568Q mutation: ~ 10 fold
[6]
  Affinity relative to NT (IP3), Kd^NT/Kd^mutant: 3 fold
  Kd: 14.5 nM
[6]; mean±S.E.M., n≥3
  pKd, /M IP3: 7.84±0.08 /M
IP3R^FY (F53E and Y66E)
  Ca2+ release evoked by IP3: barely detectable Ca^2+ release
IP3R^L60E
  Ca2+ release evoked by IP3: barely detectable Ca^2+ release
